Target: T1, human RORγ-LBD (Homo sapiens, UniProt P51449)
T1 construct: made in house; host or cells: E. coli (BL-21)
T1 sequence (P51449 262-518): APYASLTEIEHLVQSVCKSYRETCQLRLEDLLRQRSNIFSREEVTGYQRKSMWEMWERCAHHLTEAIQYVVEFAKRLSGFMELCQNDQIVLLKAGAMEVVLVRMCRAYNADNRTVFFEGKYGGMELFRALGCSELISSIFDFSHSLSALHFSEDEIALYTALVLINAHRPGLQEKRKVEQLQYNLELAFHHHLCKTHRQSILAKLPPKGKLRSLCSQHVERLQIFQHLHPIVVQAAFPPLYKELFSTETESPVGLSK
Assay: ROR gamma coactivator peptide recruitment Alphascreen assay (RORγ-LBD binding to GRIP1 coactivator peptide)
Format: biochemical
Conditions: 5 nM human RORγ-LBD, 30 nM 7-β-hydroxycholesterol, 50 nM biotinylated GRIP1 coactivator peptide, overnight incubation at room temperature; read-out: result (pIC50, RORγ coactivator peptide recruitment Alphascreen assay) (converted)
How it was run: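 Alphascreen proximity read-out after overnight room-temperature incubation, yielding pIC50 from 1-in-2 compound series (2.5% DMSO final). Mixture: 50 nM biotin-GRIP1 peptide, 30 nM 7-β-hydroxycholesterol agonist, 5 nM recombinant 6×His:Flag human RORγ-LBD (aa 262-518), 50 mM HEPES pH 7.4.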

Row | Structure (SMILES) | IC50
1 | CO[C@@H](CN(CC(C)(C)C)C(=O)c1cnn([C@H]2CC[C@H](C(=O)O)CC2)c1C(F)(F)F)c1c(Cl)cc(C)cc1Cl [Example 531, trans-4-(4-(((2R)-2-(2,6-dichloro-4-methylphenyl)-2-methoxyethyl)(2,2-dimethylpropyl)carbamoyl)-5-(trifluoromethyl)-1H-pyrazol-1-yl)cyclohexanecarboxylic acid] | 1070 nM
2 | CC1(CN(CC(=O)c2c(Cl)cc(F)cc2Cl)C(=O)c2cnn([C@H]3CC[C@](C)(C(=O)O)CC3)c2C(F)(F)F)CCC1 [Example 691, trans-4-(4-((2-(2,6-dichloro-4-fluorophenyl)-2-oxoethyl)((1-methylcyclobutyl)methyl)carbamoyl)-5-(trifluoromethyl)-1H-pyrazol-1-yl)-1-methylcyclohexanecarboxylic acid] | 1.66 nM
3 | C[C@]1(C(=O)O)CC[C@H](n2ncc(C(=O)N(CC(=O)c3c(Cl)cncc3Cl)CC3(F)CCCCC3)c2C(F)(F)F)CC1 [Example 666, trans-4-(4-((2-(3,5-dichloro-4-pyridinyl)-2-oxoethyl)((1-fluorocyclohexyl)methyl)carbamoyl)-5-(trifluoromethyl)-1H-pyrazol-1-yl)-1-methylcyclohexanecarboxylic acid] | 4.57 nM
4 | Cc1cc(Cl)c(C(=O)CN(CC2(C)CCCCC2)C(=O)c2cnn([C@H]3CC[C@H](C(=O)O)CC3)c2C(F)(F)F)c(Cl)c1 [Example 519, trans-4-(4-((2-(2,6-dichloro-4-methylphenyl)-2-oxoethyl)((1-methylcyclohexyl)methyl)carbamoyl)-5-(trifluoromethyl)-1H-pyrazol-1-yl)cyclohexanecarboxylic acid] | 5.13 nM

Second part, the compound after the results:

Row | IC50 | Structure (SMILES)
5 | 12.9 nM | C[C@]1(C(=O)O)CC[C@H](n2ncc(C(=O)N(CC(=O)c3c(Cl)cncc3Cl)CC3(F)CC4(CC4)C3)c2C(F)(F)F)CC1 [Example 712, trans-4-(4-((2-(3,5-dichloro-4-pyridinyl)-2-oxoethyl)((5-fluorospiro[2.3]hex-5-yl)methyl)carbamoyl)-5-(trifluoromethyl)-1H-pyrazol-1-yl)-1-methylcyclohexanecarboxylic acid]
6 | 468 nM | C[C@@H]1C[C@@H](n2ncc(C(=O)N(CCc3c(Cl)c[nH]c(=O)c3Cl)CC(C)(C)C)c2C(F)(F)F)CC[C@@H]1C(=O)O [Example 886, (1S,2R,4S)-4-(4-((2-(3,5-dichloro-2-oxo-1,2-dihydro-4-pyridinyl)ethyl)(2,2-dimethylpropyl)carbamoyl)-5-(trifluoromethyl)-1H-pyrazol-1-yl)-2-methylcyclohexane carboxylic acid]
7 | 32.4 nM | C[C@@H]1CC[C@@H](CN(CC(=O)c2c(Cl)cncc2Cl)C(=O)c2cnn([C@H]3CC[C@](C)(C(=O)O)CC3)c2C(F)(F)F)O1 [Example 706, trans-4-(4-((2-(3,5-dichloro-4-pyridinyl)-2-oxoethyl)(((2S,5R)-5-methyltetrahydro-2-furanyl)methyl)carbamoyl)-5-(trifluoromethyl)-1H-pyrazol-1-yl)-1-methylcyclohexanecarboxylic acid]
8 | 63.1 nM | CC(C)CCN(CC(=O)c1c(Cl)cncc1Cl)C(=O)c1cnn([C@H]2CC[C@H](C(=O)O)[C@H](C)C2)c1C(F)(F)F [Example 803, (1S,2R,4S)-4-(4-((2-(3,5-dichloro-4-pyridinyl)-2-oxoethyl)(3-methylbutyl)carbamoyl)-5-(trifluoromethyl)-1H-pyrazol-1-yl)-2-methylcyclohexanecarboxylic acid]
9 | 18200 nM | C[C@]1(C(=O)O)CC[C@H](n2ncc(C(=O)N3C[C@@H](Oc4ccccc4)C[C@@H]3C(=O)c3c(Cl)cncc3Cl)c2C(F)(F)F)CC1 (single isomer, unassigned) [Example 796]
10 | 7.94 nM | Cc1cc(C)c(C(=O)CN(Cc2cc(F)cc(F)c2)C(=O)c2cnn([C@H]3CC[C@](C)(C(=O)O)CC3)c2C(F)(F)F)c(Cl)n1 [Example 702, trans-4-(4-((2-(2-chloro-4,6-dimethyl-3-pyridinyl)-2-oxoethyl)(3,5-difluorobenzyl)carbamoyl)-5-(trifluoromethyl)-1H-pyrazol-1-yl)-1-methylcyclohexanecarboxylic acid]
